Data set [1] in a line: Plasma protein binding, equilibrium dialysis, human plasma. It counts as in vitro ADME. The note with it: undiluted plasma. In general terms: In equilibrium dialysis only unbound substance equilibrates across the membrane.
Data set [2] is described as follows: Plasma protein binding, mouse plasma. The class given is in vitro ADME.
Data set [3] is described as follows: Kinetic solubility in PBS. It counts as physicochemical. The following applies: phosphate-buffered saline, pH 7.4, aqueous buffer, kinetic from dmso stock. The method in brief:
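Echo-MS quantitation with calibration from 0.05 to 4 μM, after 1:99 dilution of filtrate into 50% acetonitrile. Filtrate came from a 100 μM PBS (pH 7.4) solution equilibrated 2 h at room temperature with shaking, in duplicate.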

Data set [4] in a line: Microsomal stability assay, human liver microsomes. It counts as in vitro ADME. The following applies: for Mics (hu) comp remaining 60 min: 10 μM; for microsomal CLint at 10 µM: pooled liver microsomes, pH 7.4, read-out: Mics (hu) CLint. (In general: Liver microsomes are vesicles of endoplasmic reticulum, rich in cytochrome P450 enzymes.)
The nature of data set [5]: Microsomal stability assay, mouse liver microsomes. The class given is in vitro ADME. The following applies: for Mics (m) comp remaining 60 min: 10 μM; for microsomal CLint at 10 µM: pooled liver microsomes, pH 7.4, read-out: Mics (m) CLint.
For data set [6], the system named is CD8+ T cells. In words: CD8+ T cell activation assay (CD25, IFN-γ, granzyme B). It counts as cell-based, human. The following applies: 500 nM, separate CD8+ T-cell activation assays. Here is the method: 6 CD73 inhibition partially reverses the immunosuppressive effect of adenosine generated from AMP in CD8 ^ + T cells. CD8^+ T cells were activated using CD3/CD28 activation beads in the presence of 2.5 μM EHNA, with or without 1 mM AMP and CD73 inhibitors (500 nM or 50 nM). A. CD25 expression. The percentage of CD8^+ T cells expressing the activation marker CD25 was measured by flow cytometry 60 h after activation. Data represent technical triplicates. B. Cytokine secretion. Granzyme B and IFN-γ levels in the culture supernatant were quantified by ELISA 60 h after activation. The data represent technical duplicates from two independently treated wells.
Peripheral blood was obtained from healthy donors at the Military University Hospital Prague, following informed consent. CD8+ T cells were enriched using the RosetteSep Human CD8+ T Cell Enrichment Cocktail ([…] Technologies) according to the manufacturer’s instructions and subsequently isolated by density gradient centrifugation using SepMate tubes ([…] Technologies). Residual red blood cells were lysed using a red blood cell lysis buffer (155 mM NH4Cl, 12 mM NaHCO3, 0.1 mM EDTA, pH = 7.1–7.4). The isolated CD8+ T cells were resuspended in complete RPMI and counted using an automated cell counter.
CD8+ T cells were seeded at 5 × 10^4 cells/well in 50 μL of complete RPMI in a flat-bottom 96-well plate. […] This was followed by the addition of 10 μL of a CD73 inhibitor at either 5 μM or 500 nM (experimental wells) or 10 μL of complete RPMI (control wells). Subsequently, 20 μL of 5 mM AMP was added to all wells except those serving as controls for maximal T cell activation. […]
Following incubation, supernatants were collected for quantification of IFN-γ and granzyme B using ELISA. […] Finally, stained cells were washed and analyzed using a BD LSRFortessa flow cytometer. Data were processed and analyzed using FlowJo software (version 10.8.1) and GraphPad Prism 10.
Secretion of IFN-γ and granzyme B was quantified using Human IFN-γ DuoSet ELISA and Human Granzyme B DuoSet ELISA (R&D Systems) according to the manufacturer’s instructions. […]

For data set [7] the following is noted: AB680 literature row of Table 4; cited from earlier work.
Data set [8] in a line: in vitro. The note with it: human, plasma.
The nature of data set [9]: in vitro. The note with it: mouse, plasma.
The target in data set [10] is T1, recombinant human CD73 (hCD73) (Homo sapiens, UniProt P21589).
T1 sequence (P21589 27-574): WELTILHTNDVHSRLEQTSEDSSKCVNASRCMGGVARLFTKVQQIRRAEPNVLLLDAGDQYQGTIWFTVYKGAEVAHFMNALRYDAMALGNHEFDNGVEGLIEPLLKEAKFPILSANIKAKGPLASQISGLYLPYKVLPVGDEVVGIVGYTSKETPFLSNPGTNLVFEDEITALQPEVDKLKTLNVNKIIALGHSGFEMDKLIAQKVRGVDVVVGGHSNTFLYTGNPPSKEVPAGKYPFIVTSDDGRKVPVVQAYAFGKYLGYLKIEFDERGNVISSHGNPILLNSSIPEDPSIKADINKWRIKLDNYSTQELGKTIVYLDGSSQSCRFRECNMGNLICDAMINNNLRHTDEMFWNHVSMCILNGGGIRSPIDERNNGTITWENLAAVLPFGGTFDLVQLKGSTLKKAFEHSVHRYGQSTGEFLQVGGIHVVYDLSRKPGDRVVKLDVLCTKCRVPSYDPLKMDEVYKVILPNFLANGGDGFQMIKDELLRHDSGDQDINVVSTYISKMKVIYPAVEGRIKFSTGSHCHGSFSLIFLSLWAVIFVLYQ
In words: CD73 activity assay on recombinant human CD73. The class given is biochemical. The note with it: ΔGexp = RT ln Ki.

Data set [11] is described as follows: In vivo pharmacokinetic study, intravenous. Set-up: species or system male CD-1 mice. The following applies: for half-life: male, footnote: t1/2 stability in plasma, text: half-life in mouse PK. A digest of the protocol: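 Single intravenous dose in male CD-1 mice (n=3, 9 weeks, 29.2–33.7 g). Plasma levels measured by LC-MS/MS at 5, 15, 30, 60, 120, 240 and 480 min.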

Data set [12] relates to CCRF-CEM. Kind of data set: In vitro cytotoxic activity. The class given is cell-based. The following applies: Homo sapiens. Here is the method:
(§1) All the compounds were also tested for their in vitro cytotoxic activity on a small panel of four cancer cell lines (CCRF-CEM, HepG2, HeLa S3, HL-60) and nonmalignant human dermal fibroblasts (NHDF).

Data set [13] relates to HL-60. Kind of data set: In vitro cytotoxic activity. It counts as cell-based. The following applies: Homo sapiens. The method, then: as §1
Data set [14] deals with HeLa S3. In words: In vitro cytotoxic activity. It counts as cell-based. The following applies: Homo sapiens. Here is the method:
as §1

In data set [15] the test system is HepG2. In words: In vitro cytotoxic activity. It counts as cell-based. The note with it: Homo sapiens. The method, then: as §1
The test system of data set [16] is nonmalignant human dermal fibroblasts (NHDF). In words: In vitro cytotoxic activity. It counts as cell-based. The method, then: as §1
Data set [17] in a line: Plasma stability assay, human plasma.
Data set [18] is described as follows: Plasma stability assay, mouse plasma.
Data set [19] relates to MDA-MB-231 breast cancer cell line. Kind of data set: CellTox Green cytotoxicity assay. The note with it: 24 h. It counts as cell-based, human. The method, then: MDA-MB-231 cells were harvested and counted using an automated cell counter. A total of 2,500 cells per well were seeded in 20 μL of phenol red-free complete RPMI medium into black 384-well plates. Five μL of CD73 inhibitors (final concentration: […]) or 5 μL PBS (negative control) were added to each well, except for wells designed as maximal signal (dead cell) controls. Plates were incubated for 24 h at 37 °C in a humidified CO2 incubator. To generate the maximum signal control, 5 μL of lysis buffer (CellTox Green Cytotoxicity Assay, Promega) was added to the dead cell controls, followed by a 30 min incubation at room temperature. Subsequently, 25 μL/well of CellTox Green Dye (diluted 1:500 in the assay buffer; Promega) was added. Plates were incubated in the dark on an orbital shaker at 500–700 rpm for 15 min. Fluorescence was measured using an Infinite M1000 plate reader (Tecan) with excitation at 485–500 nm and emission at 520–530 nm. Data were analyzed in GraphPad Prism 10.
Figure S2: Effect of CD73 inhibition on the viability of CD73-expressing breast cancer cell line. MDA-MB-231 cells were incubated with 10 µM CD73 inhibitors for 24 hours. Viability was assessed using the CellTox™ Green Cytotoxicity Assay.
± s.d. of technical triplicates (s.d., standard deviation).
(1 picture or pasted object on this page, not shown here)

The mark [20] stands for this setting: human plasma protein binding, read-out: PPB (hu) (converted).
[21] abbreviates: mouse, plasma, Tables 2 and 4, mouse plasma, read-out: fup, fraction unbound in mouse plasma.
Setting [22] is: mouse, plasma, mouse plasma protein binding, read-out: PPB (m) (converted).
[23] abbreviates: mouse, plasma, 1 mg/kg, male CD-1 mice, intravenous, single dose, read-out: Cl (obs), observed clearance.

Values after ≈ are worked out from the molar mass of the structure shown. Where two headings read alike, the source gives them in different places.

`C[C@H](Nc1cc(Cl)nc2c1cnn2[C@@H]1O[C@H](COP(=O)(O)CP(=O)(O)O)[C@@H](O)[C@H]1O)c1ccccc1F` [AB680, quemliclustat, reference compound]: the fraction unbound at 4 h, 100 µM in [1] (setting [20]) is ≤ 0.01; in data set [2] (setting [21]), 0.1; in data set [2] (setting [22]) it was 0.098. Further, the solubility (as a rule, the concentration that dissolves in the medium under given conditions) at 2 h in data set [3] turned out to be 76 µM (≈ 44.1 µg/mL). Also, in [4], the “Mics (hu) comp remaining 60 min” value came to 118%. Moreover, the microsomal CLint at 10 µM in data set [4] and in [5] was < 2 µL/min/mg throughout. For the same molecule, the “Mics (m) comp remaining 60 min” value in [5] is on record as 117%. The “median increase in CD25 expression” value in data set [6] is on record as 41%. Also, the “fup, fraction unbound in mouse plasma” value in data set [7] is recorded as 0.89. Besides, the half-life at 10 µM in data set [8] and in data set [9] was > 2 h throughout.

For `O=P(O)(O)CP(=O)(O)OC[C@H]1O[C@@H](n2ccc3c(-c4cc5ccccc5c5ccccc45)ncnc32)[C@H](O)[C@@H]1O` [4A.11], in data set [10], the “dG_exp, experimental binding free energy” value is “–13.1 kcal/mol”. The clearance – broadly, the volume of plasma or blood freed of the substance per unit of time – in data set [11] (in vivo PK in mice, unit not given) is “moderate clearance”; in data set [11] (setting [23]) it was 2 mL/min/kg. In addition, the half-life (in general, the time needed for the level to fall by half in the phase considered) in data set [11] (CD-1, 1 mg/kg, intravenous) is 1.65 h. For the same molecule, the fraction unbound at 4 h, 100 µM is 0.31 in [1] (Tables 1 and 3, human plasma as printed in footnote, read-out: fup, fraction unbound in human plasma); 0.013 in [1] (setting [20]); 0.222 in data set [2] (mouse plasma protein binding, read-out: PPB (m) (converted)). The molecule further gave a solubility at 2 h in data set [3] of 68 µM (≈ 39.8 µg/mL). The IC50 in data set [12], in data set [13], in data set [14], in [15] and in [16] was > 10 µM in each case. Moreover, the half-life at 10 µM in [17] and in [18] was > 2 h throughout.

For the molecule `O=P(O)(O)CP(=O)(O)OC[C@H]1O[C@@H](n2ccc3c(-c4cccc5ccccc45)nc(Cl)nc32)[C@H](O)[C@@H]1O` [7B.6], the “dG_exp, experimental binding free energy” value in [10] was “–15.4 kcal/mol”. The molecule also came in with a half-life in data set [11] (CD-1, mouse, plasma, iv, 1 mg/kg, intravenous) of 2.1 h. In addition, the clearance in [11] (setting [23]) was found to be 0.73 mL/min/kg. In addition, the results for the fraction unbound at 4 h, 100 µM in [1] (setting [20]), in data set [2] (setting [21]) and in data set [2] (setting [22]) were 0.034, 0.27 and 0.274, respectively. The solubility at 2 h in data set [3] came out at 92 µM (≈ 52.4 µg/mL). For the same molecule, the “Mics (hu) comp remaining 60 min” value in [4] turned out to be 96%. For the same molecule, the microsomal CLint at 10 µM was 1 µL/min/mg in data set [4] and 2 µL/min/mg in data set [5]. Further, the “Mics (m) comp remaining 60 min” value in data set [5] was 94%. Besides, the IC50 (usually the concentration at which inhibition is half-maximal) in data set [12] is > 10 µM; in data set [13] it was 2.9 µM; in [14] it was > 10 µM; in data set [15], > 10 µM; in data set [16], > 10 µM. In addition, the “in vitro cytotoxicity against MDA-MB-231” value in data set [19] is given as “nontoxic”. Moreover, the half-life at 10 µM in data set [8] and in data set [9] was > 2 h each time.

Source of the values: paper PMC12797170, “Potent Competitive Inhibitors of Ecto-5′-nucleotidase (CD73) based on 6‑(Het)aryl-7-deazapurine Ribonucleoside 5′‑O‑Bisphosphonates” (ACS Pharmacology & Translational Science, 2025).
